Test results from publication PMC7355964, “Enhancement in Oral Absorption of Ceftriaxone by Highly Functionalized Magnetic Iron Oxide Nanoparticles” (Pharmaceutics, 2020).
Entries after “also recorded” stand apart in the source; their conditions may differ.

Columns and labels:
[1] = In vivo oral pharmacokinetics studies; set-up: species or system Rabbits (Oryctolaguscuniculus); details: rabbit, oral CFT aqueous solution
Procedure: The availability of CFT and internal standard cephalexin (CEP) in plasma was determined through reverse phase HPLC protocol developed and validated in our laboratories. The protein precipitation method was taken into account for extracting drug from plasma. Plasma (200 µL) containing both drugs was blended and vortexed with ACN (400 µL) for 2 min and the precipitate was separated by centrifugation at 15,483 G for 10 min. The acquired supernatant was concentrated in vacuum and reconstituted in buffer (TBAH, 100 µL; pH 7.0). A volume of 25 µL was injected into the HPLC system Shimadzu, LC20A (Shimadzu, Kyoto, Japan) equipped with a purospher C18 (5 µm, 250 × 4.6 mm) column. The mobile phase was comprised of ACN and TBAH buffer (0.005 M, pH 7.0) in a ratio of 25:75. The flow rate was adjusted to 1 mL/min, and the wavelength selected was 220 nm.
Animal studies were conducted under institutional guidelines by following the principals of institutional animal care. The studies were approved by the Ethics Committee of International Center for Chemical and Biological Sciences, University of Karachi (Project identification code ICCBS/CBSCR/IEC-014/2018; approved date 06-04-2018). All animals were healthy and purchased for Dow University of Health Sciences OJHA campus Karachi, Pakistan. Rabbits (Oryctolaguscuniculus) with 1.2 kg normal body weight were chosen for the assessment of oral in vivo pharmacokinetics studies. Rabbits were held under standard quarantine conditions with free access to food and water for 12 h. Before conducting the in vivo studies, rabbits were kept under fasting conditions but with free access to water. Rabbits were divided into three distinct categories (n = 4). The first category was given CFT-MIH-MNPs suspension at 25 mg/kg body weight portion. Rabbits of the second and third categories were provided with CFT in oral aqueous solution at 25 and 50 mg/kg body weight. Blood samples (1mL) were collected via marginal ear vein using an insulin plastic syringe at various intervals within 24 h. After centrifugation at 2688 G for 10 min, plasma was acquired and stored at –20 °C. Pharmacokinetics parameters were assessed by linear trapezoidal standard using a non-compartmental model from individual drug plasma concentrations with reference to a time curve for CFT after oral administration of nanoformulation and controls separately. The estimations of maximum drug plasma concentration (Cmax) and time to reach maximum plasma concentration (Tmax) were obtained from the drug plasma concentration curves. These parameters were utilized to ascertain the pharmacokinetics parameters area under the curve from zero to last quantifiable value (AUC0-24), mean residence time (MRT) and clearance (Cl).

[2] = set-up: method as in PMID 23143633; details: ref [35]; cited from earlier work

- Cmax ([1]; albino, plasma, 50 mg/kg): 2000 ± 600 ng/mL
- MRT ([1]; albino, plasma, 50 mg/kg): 8.4 ± 0.1 h
- Tmax ([1]; albino, plasma, 50 mg/kg): 1.5 h
- AUC(0-t) ([1]; albino, plasma, 50 mg/kg, read-out: AUC0-24): 16100 ± 3700 ng·h/mL
- Clearance ([1]; 50 mg/kg): 3.91 ± 0.4 L/h
- Volume distribution ([1]; 50 mg/kg): 33.0 ± 1.94 L
- Clearance ([1]; 50 mg/kg, listed as CFT Solution): 3.9 ± 0.4 L/h
SMILES: CO/N=C(\C(=O)N[C@@H]1C(=O)N2C(C(=O)O)=C(CSc3nc(=O)c(=O)[nH]n3C)CS[C@H]12)c1csc(N)n1 [CFT, Ceftriaxone]
- CFT detection in blood plasma (HPLC) ([1]; 25 mg/kg): no drug was detected; also recorded: no detection of CFT in the blood plasma
- pH (early neutral pH) [2]: about 6.7
